Laboratory results taken from US8846704B2, “Thiopyrimidine-based compounds and uses thereof” (YM Biosciences Austraila Pty Ltd, priority 2007, dated 2014).

Target: T1, human CSF1-R (FMS) (Homo sapiens, UniProt P07333)
T1 construct: from codon I553 to Q961; GST (N); made in house; host or cells: Sf9 insect cells (baculovirus)
T1 sequence (P07333 553-961): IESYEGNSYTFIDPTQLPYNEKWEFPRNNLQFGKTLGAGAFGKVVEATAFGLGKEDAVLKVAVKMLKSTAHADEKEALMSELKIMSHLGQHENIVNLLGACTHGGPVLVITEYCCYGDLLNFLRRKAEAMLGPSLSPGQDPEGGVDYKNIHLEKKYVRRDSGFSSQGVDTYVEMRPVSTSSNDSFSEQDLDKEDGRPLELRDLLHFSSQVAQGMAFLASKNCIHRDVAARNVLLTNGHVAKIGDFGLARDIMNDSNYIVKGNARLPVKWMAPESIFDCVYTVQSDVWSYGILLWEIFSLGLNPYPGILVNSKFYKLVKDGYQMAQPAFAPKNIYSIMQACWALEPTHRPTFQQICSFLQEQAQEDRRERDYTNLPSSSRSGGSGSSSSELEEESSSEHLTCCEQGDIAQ
Test: Alphascreen tyrosine kinase enzyme assay, CSF-1R (FMS) kinase domain
Assay type: biochemical
Conditions: read-out: FMS, FLT3, or HCK IC50_nM (FMS)
Method: For screening purposes, compounds (in 100% DMSO) were warmed at 37 degrees for at least 20 minutes before use. A […] stock was initially made in assay buffer, where the final concentration of DMSO was 0.3%. The stocks were then diluted in 384 well Optiplates (Packard) where the final concentration of the compound was […].
The kinase domain of human CSF1-R from codon I553 to Q961 was cloned into the pDest20 expression vector (Invitrogen). The CSF1-R plasmid was then transformed into competent DH10Bac cells (Gibco), and the recombinant baculovirus produced prepared for transfection into Sf9 insect cells.
Baculovirus preparations from each of the constructs were infected into either one or five liters of Sf9 cells (Invitrogen) grown in SF-900 medium (Invitrogen) to a cell density of approximately 1-2×10^6 cells/ml. Cells were infected with virus at a MOI of 0.8-3.0. Cells were harvested and lysed. Tyrosine kinase domains were purified by affinity chromatography on a glutathione-agarose column (Scientifix Pty. Ltd. catalog #: GSH-200).
Kinase assays were performed in 384 well Optiplates (Packard) using an Alphascreen Protein Tyrosine Kinase PY100 detection kit The compounds were pre-incubated with affinity purified PTK domain in the presence of phosphotyrosine assay buffer (10 mM HEPES, pH 7.5, 100 mM MgCl2, 25 mM NaCl, […] and 0.1% Tween 20) for 20 minutes. The compounds were then incubated with substrate in the presence of ATP. The substrate used was susbtrate-1 with the sequence biotin-EGPWLEEEEEAYGWMDF-NH2 [SEQ. ID. NO. 13] (final concentration […]). For HCK 80 μm ATP was used and incubated for 60 minutes. Alphascreen phosphotyrosine acceptor beads followed by streptavidin donor beads at a concentration of 1/100 in stop buffer were added to each well under subdued light and incubated for 2-3 hours., The Alphascreen plates were read on a Packard Fusion Alpha instrument.

C=CC(=O)Nc1ccc(Sc2ccnc(Nc3cccc(N4CCOCC4)c3)n2)cc1 [Compound 77, N-(4-(2-(3-morpholinophenylao)pyrimidin-4-ylthio)phenyl)acrylamide]
IC50: < 500 nM

C=CC(=O)Nc1ccc(Sc2ccnc(Nc3cc(C)cc(C)c3)n2)cc1 [Compound 82, N-(4-(2-(3,5-dimethylphenylao)pyrimidin-4-ylthio)phenyl)acrylamide]
IC50: < 500 nM
